We go through one molecule from PMC2918681 (Biochemical and biophysical research communications, 2010).

The target in assay [1] is T1, acyl-coenzyme A:cholesterol acyltransferase 1 (ACAT1) (Homo sapiens, UniProt P35610).
T1 sequence (P35610 1-550): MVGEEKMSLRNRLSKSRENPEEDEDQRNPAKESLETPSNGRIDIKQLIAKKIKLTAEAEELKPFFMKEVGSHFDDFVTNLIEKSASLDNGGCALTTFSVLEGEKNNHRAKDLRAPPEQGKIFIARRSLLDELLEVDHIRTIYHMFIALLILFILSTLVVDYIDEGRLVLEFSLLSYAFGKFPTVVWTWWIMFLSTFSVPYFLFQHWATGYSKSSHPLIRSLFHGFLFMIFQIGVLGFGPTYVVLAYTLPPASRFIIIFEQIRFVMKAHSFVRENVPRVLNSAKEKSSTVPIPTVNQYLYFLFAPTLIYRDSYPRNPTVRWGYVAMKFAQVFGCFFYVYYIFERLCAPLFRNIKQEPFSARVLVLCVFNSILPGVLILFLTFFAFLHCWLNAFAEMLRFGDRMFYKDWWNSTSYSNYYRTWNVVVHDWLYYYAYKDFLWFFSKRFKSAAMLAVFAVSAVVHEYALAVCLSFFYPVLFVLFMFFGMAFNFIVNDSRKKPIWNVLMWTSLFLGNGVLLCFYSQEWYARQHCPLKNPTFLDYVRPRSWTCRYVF
In words: [3H]oleate incorporation into cholesteryl oleate in CHO-ACAT1 cells. Format: cell-based.

Assay [2] has as its target T2, acyl-coenzyme A:cholesterol acyltransferase 2 (ACAT2) (Homo sapiens, UniProt O75908).
T2 sequence (O75908 1-522): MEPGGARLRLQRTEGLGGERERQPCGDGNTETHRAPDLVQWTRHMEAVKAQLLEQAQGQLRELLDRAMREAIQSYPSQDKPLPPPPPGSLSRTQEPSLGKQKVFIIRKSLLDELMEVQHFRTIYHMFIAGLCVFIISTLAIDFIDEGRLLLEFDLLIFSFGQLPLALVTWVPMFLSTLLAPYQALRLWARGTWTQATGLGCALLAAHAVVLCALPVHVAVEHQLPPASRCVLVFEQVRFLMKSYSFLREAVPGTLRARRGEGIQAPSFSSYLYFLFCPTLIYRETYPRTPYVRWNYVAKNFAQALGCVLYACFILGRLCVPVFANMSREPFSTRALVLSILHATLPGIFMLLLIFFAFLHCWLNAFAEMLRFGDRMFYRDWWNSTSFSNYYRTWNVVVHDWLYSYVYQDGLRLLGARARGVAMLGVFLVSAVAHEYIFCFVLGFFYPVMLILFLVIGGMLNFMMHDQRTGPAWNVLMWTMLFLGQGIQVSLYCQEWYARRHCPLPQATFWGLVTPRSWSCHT
Description: [3H]oleate incorporation into cholesteryl oleate in CHO-ACAT2 cells. Format: cell-based.

The IC50 is the concentration that inhibits the measured activity by half. Higher therefore signals weaker potency in that assay. Regarding `Cc1c(C(=O)NN2CCCCC2)nn(-c2ccc(Cl)cc2Cl)c1-c1ccc(Cl)cc1` [Rimonabant], the figures for the half-inhibitory concentration (IC50) in assay [1] and in assay [2] were 1500 ± 1200 nM and 2200 ± 1100 nM, respectively.
